Reference: patent US20230203485A1, “METHODS FOR MODULATING MHC-I EXPRESSION AND IMMUNOTHERAPY USES THEREOF” (Dana-Farber Cancer Institute, Inc., priority 2020, published 2023)

Tested on: class I antigen presentation gene expression in MCC cell lines
Experiment: RNA-seq / DESeq2 differential expression of MCC cell lines at baseline and after IFN-γ stimulation
Type: cell-based, human
Description: FIG. 2A comprises RNA-seq heatmaps of class I antigen presentation gene expression in MCC lines and controls.
FIG. 2B is a volcano plot of differentially expressed genes (genes below FDR cutoff 0.01 are shown in yellow) between baseline and IFN-γ-treated MCC cell lines. Differential expression analysis was performed using DESeq2, and negative LFC indicates increased expression in +IFN-γ samples. IFN genes are highlighted in red.
RNA samples were first assessed for quality using the Agilent Bioanalyzer (DV200 metric). One hundred ng of RNA were used as the input for first strand cDNA synthesis using Superscript III reverse transcriptase and Illumina's TruSeq RNA Access Sample Prep Kit. Synthesis of the second strand of cDNA was followed by indexed adapter ligation with UMI (unique molecular index) adaptors. Subsequent PCR amplification enriched for adapted fragments. Amplified libraries were quantified, normalized, pooled, and hybridized with exome targeting oligos. Following hybridization, bead clean-up, elution and PCR was performed to prepare library pools for sequencing on Illumina flowcell lanes. Transcriptomes were sequenced to a coverage of at least 50 million reads in pairs.
Raw fastq files for fibroblast and keratinocyte control lines were downloaded from SRA using R Bioconductor package SRAdb (Mayakonda et al. (2018) supra; Zhu et al. (2013) BMC Bioinformatics 14 (1): 1-4) using accession codes SRP126422 (4 replicates from control samples ‘NN’) and SRP131347 (6 replicates with condition: control and genotype: control). These fastq files, along with those for the mkl1 and waga cell lines, were aligned using STAR version 2.7.3a (Dobin et al. (2013) Bioinformatics 29 (1): 15-21), using index genome reference file downloaded from ftp.ebi.ac.uk/pub/databases/gencode/Gencode_human/release_19/GRCh37.p13.genome.fa.gz, transcript annotation file downloaded from data.broadinstitute.org/snowman/hg19/star/gencode.v19.annotation.gtf, and with the following options: --twopassMode Basic, --outSAMstrandField intronMotif, --alignIntronMax 1000000, --alignMatesGapMax 1000000, --sjdbScore 2, --outSAMtype BAM Unsorted, --outSAMattributes NH HI NM MD AS XS, --outFilterType BySJout, --outSAMunmapped Within, --genomeLoad NoSharedMemory, --outFilterScoreMinOverLread 0, --outFilterMatchNminOverLread 0, --outFilterMismatchNmax 999, and outFilterMultimapNmax 20. Duplicates were marked with picard MarkDuplicates version 2.22.0-SNAPSHOT.
RNA-sequencing bam files for MCC tumor and cell line samples were downloaded from the Broad Genomics Firecloud/Terra platform using the Google Cloud Storage command line tool gsutil version 4.5 (github.com/GoogleCloudPlatform/gsutil/).
Gene counts were obtained from bam files using featureCounts version 2.0.0 (doi.org/10.1093/bioinformatics/btt656). Very lowly expressed genes with average count across samples less than 1 were excluded from analysis. Between-sample distance metrics were computed using the Euclidean distance on the vectors of variance-stabilized counts obtained from the vst function in the DESeq2 R Bioconductor package ([…]; Love et al. (2014) Genome Biology 15 (12): 550).
Differential expression analysis was carried out between (1) viral positive and viral negative samples (adjusting for cell line or tumor as a covariate), (2) cell line and tumor samples (adjusting for viral status as a covariate), and (3) IFNγ plus and minus samples (adjusting for viral status as a covariate) using the negative binomial GLM Wald test of DESeq2, where significance was assessed using the p-values adjusted for multiple comparisons under default settings. To account for potential global gene expression differences among sample groups, RUVg (Risso et al. (2014) […] 32 (9): 896-902) was used to estimate latent factors of unwanted variation from the list of housekeeping genes downloaded from www.tau.ac.il/˜elieis/HKG/HK_genes.txt. […]

[1] = 11 MCC cell lines, baseline vs IFNγ, negative LFC = upregulation in IFNγ-treated

For “IFN-y: type II interferon, recombinant human, used to treat MCC cells”, the “class I genes mRNA expression (RNA-seq)” value (10 of 11 MCC lines, baseline vs treated) was “markedly upregulated”, the “log2FoldChange ACSL5 (ENSG00000197142.6)” value [1] was −5.831 and the “log2FoldChange ADAR (ENSG00000160710.11)” value [1] was −1.068. The “log2FoldChange ADGRF3 (ENSG00000173567.10)” value [1] was −0.853, the “log2FoldChange ATP2C1 (ENSG00000017260.15)” value [1] was −0.5502 and the “log2FoldChange ATP10D (ENSG00000145246.9)” value [1] was −2.417. For the same substance, the “log2FoldChange AZIN2 (ENSG00000142920.12)” value [1] was −1.224, the “log2FoldChange BATF2 (ENSG00000168062.5)” value [1] was −7.362 and the “log2FoldChange BCL2L14 (ENSG00000121380.8)” value [1] was −5.59. The “log2FoldChange BCL6 (ENSG00000113916.13)” value [1] was −2.953, the “log2FoldChange BTN2A1 (ENSG00000112763.11)” value [1] was −0.9873 and the “log2FoldChange BTN2A3P (ENSG00000124549.10)” value [1] was −4.459. The “log2FoldChange BTN3A1 (ENSG00000026950.12)” value [1] was −6.582, the “log2FoldChange BTN3A2 (ENSG00000186470.9)” value [1] was −6.089 and the “log2FoldChange BTN3A3 (ENSG00000111801.11)” value [1] was −6.93. For the same substance, the “log2FoldChange C1QB (ENSG00000173369.11)” value [1] was −3.233, the “log2FoldChange C2 (ENSG00000166278.10)” value [1] was −4.096 and the “log2FoldChange C4A (ENSG00000244731.3)” value [1] was −1.245. For the same substance, the “log2FoldChange C4B (ENSG00000224389.4)” value [1] was −2.248, the “log2FoldChange C5orf56 (ENSG00000197536.6)” value [1] was −3.71 and the “log2FoldChange CARD16 (ENSG00000204397.3)” value [1] was −6.289. The “log2FoldChange CASC6 (ENSG00000224944.1)” value [1] was −3.263, the “log2FoldChange CASP1 (ENSG00000137752.18)” value [1] was −7.907 and the “log2FoldChange CASP4 (ENSG00000196954.8)” value [1] was −4.024. For the same substance, the “log2FoldChange CASP7 (ENSG00000165806.15)” value [1] was −1.833, the “log2FoldChange CCDC73 (ENSG00000186714.8)” value [1] was −2.84 and the “log2FoldChange CCND1 (ENSG00000110092.3)” value [1] was −5.698. For the same substance, the “log2FoldChange CD74 (ENSG00000019582.10)” value [1] was −8.494, the “log2FoldChange CD274 (ENSG00000120217.9)” value [1] was −6.119 and the “log2FoldChange CDC20 (ENSG00000117399.9)” value [1] was 0.6763. For the same substance, the “log2FoldChange CFB (ENSG00000243649.4)” value [1] was −7.333, the “log2FoldChange CIR1 (ENSG00000138433.11)” value [1] was −0.5344 and the “log2FoldChange CLVS1 (ENSG00000177182.6)” value [1] was −3.934. The “log2FoldChange CMPK2 (ENSG00000134326.7)” value [1] was −2.83, the “log2FoldChange CSF1 (ENSG00000184371.9)” value [1] was −3.741 and the “log2FoldChange CTSO (ENSG00000256043.2)” value [1] was −3.005. The “log2FoldChange CXCL9 (ENSG00000138755.5)” value [1] was −11.74, the “log2FoldChange CXCL10 (ENSG00000169245.4)” value [1] was −5.89 and the “log2FoldChange CXCL11 (ENSG00000169248.8)” value [1] was −4.672. The “log2FoldChange DDO (ENSG00000203797.5)” value [1] was −4.692, the “log2FoldChange DDX58 (ENSG00000107201.5)” value [1] was −2.939 and the “log2FoldChange DDX60 (ENSG00000137628.12)” value [1] was −7.298. For the same substance, the “log2FoldChange DDX60L (ENSG00000181381.9)” value [1] was −3.461, the “log2FoldChange DNPEP (ENSG00000123992.14)” value [1] was −1.703 and the “log2FoldChange DTX3L (ENSG00000163840.5)” value [1] was −4.603. The “log2FoldChange EIF2AK2 (ENSG00000055332.12)” value [1] was −1.367, the “log2FoldChange ENSG00000121848.9 (symbol NA)” value [1] was −0.3499 and the “log2FoldChange ENSG00000197146.2 (symbol NA)” value [1] was −1.6. The “log2FoldChange ENSG00000202533.1 (symbol NA)” value [1] was −3.684, the “log2FoldChange ENSG00000213500.3 (symbol NA)” value [1] was −2.007 and the “log2FoldChange ENSG00000224666.2 (symbol NA)” value [1] was −5.276. For the same substance, the “log2FoldChange ENSG00000224789.1 (symbol NA)” value [1] was −2.338, the “log2FoldChange ENSG00000225931.3 (symbol NA)” value [1] was −4.205 and the “log2FoldChange ENSG00000229023.1 (symbol NA)” value [1] was −4.669. For the same substance, the “log2FoldChange ENSG00000229677.1 (symbol NA)” value [1] was −2.162, the “log2FoldChange ENSG00000230812.1 (symbol NA)” value [1] was −5.173 and the “log2FoldChange ENSG00000231280.1 (symbol NA)” value [1] was −5.122. For the same substance, the “log2FoldChange ENSG00000232709.1 (symbol NA)” value [1] was −3.863, the “log2FoldChange ENSG00000233892.1 (symbol NA)” value [1] was −1.246 and the “log2FoldChange ENSG00000234290.2 (symbol NA)” value [1] was −2.28. The “log2FoldChange ENSG00000238000.1 (symbol NA)” value [1] was −1.895, the “log2FoldChange ENSG00000238160.1 (symbol NA)” value [1] was −3.274 and the “log2FoldChange ENSG00000238991.1 (symbol NA)” value [1] was −3.733. The “log2FoldChange ENSG00000245025.2 (symbol NA)” value [1] was −3.838, the “log2FoldChange ENSG00000248693.1 (symbol NA)” value [1] was −3.648 and the “log2FoldChange ENSG00000252206.1 (symbol NA)” value [1] was −2.445. The “log2FoldChange ENSG00000260336.1 (symbol NA)” value [1] was −2.736, the “log2FoldChange ENSG00000261618.1 (symbol NA)” value [1] was −6.277 and the “log2FoldChange ENSG00000271581.1 (symbol NA)” value [1] was −4.138. For the same substance, the “log2FoldChange ENSG00000271646.1 (symbol NA)” value [1] was −1.853, the “log2FoldChange ENSG00000272941.1 (symbol NA)” value [1] was −7.747 and the “log2FoldChange ERAP1 (ENSG00000164307.8)” value [1] was −2.331. For the same substance, the “log2FoldChange ERAP2 (ENSG00000164308.12)” value [1] was −3.931, the “log2FoldChange ETV7 (ENSG00000010030.9)” value [1] was −5.205 and the “log2FoldChange FAM110C (ENSG00000184731.5)” value [1] was −3.465. For the same substance, the “log2FoldChange FAM111A (ENSG00000166801.11)” value [1] was −2.679, the “log2FoldChange FAM186B (ENSG00000135436.4)” value [1] was −1.748 and the “log2FoldChange FAS (ENSG00000026103.15)” value [1] was −2.315.
